Experimental findings from ChEMBL document CHEMBL5512627, “Small-molecule agents for treating skin diseases” (Eur J Med Chem, 2024) are described below.

The species entered for experiment [1] is Mus musculus. Nature of the experiment: Anti-inflammatory activity in imiquimod-induced BALB/c mouse psoriasis model assessed as reduction in skin inflammation. Type of experiment: functional, organism-based.
Experiment [2] can be described thus: Upregulation of NE suppressed c-Kit expression in human epidermal melanocyte. Type of experiment: functional, cell-based.
Experiment [3] is filed under the species Mus musculus. Nature of the experiment: Anti-inflammatory activity in imiquimod-induced C57BL/6 mouse psoriasis model assessed as reduction in epidermal thickness at 200 uL relative to control. The format is functional. Further details: scale not given: the % may be the effect or the level left.
Experiment [4] is described as follows: Inhibition of lipid synthesis in androgen stimulated Hamster flank gland. Type of experiment: functional, Mesocricetus auratus.
The target in experiment [5] is T1, 3-oxo-5-alpha-steroid 4-dehydrogenase 1 (Homo sapiens, UniProt P18405).
T1 sequence (P18405 whole entry): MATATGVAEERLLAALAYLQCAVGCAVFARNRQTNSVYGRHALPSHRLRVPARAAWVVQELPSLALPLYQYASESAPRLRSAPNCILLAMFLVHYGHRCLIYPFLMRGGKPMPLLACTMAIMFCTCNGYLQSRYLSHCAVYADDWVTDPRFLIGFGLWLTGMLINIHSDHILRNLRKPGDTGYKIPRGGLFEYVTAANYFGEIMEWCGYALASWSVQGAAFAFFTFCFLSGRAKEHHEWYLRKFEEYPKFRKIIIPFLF
Nature of the experiment: Inhibition of human steroid 5-alpha-reductase 1.

For orientation: EC50 means the concentration that produces a half-maximal response. Take `CN1C(=O)[C@@H](NC(=O)c2n[nH]c(Cc3ccccc3)n2)COc2ccccc21` [GSK2982772]: the EC50 in the experiment filed under Mus musculus [1] came out at 4 nM.
`COC(=O)C1=CO[C@@H](O[C@@H]2O[C@H](CO)[C@@H](O)[C@H](O)[C@H]2O)[C@@H]2C(CO)=CC[C@H]12` [GENIPOSIDE] returned an EC50 in experiment [2] of 1650 nM.
As for `CCc1ccc(N(CC(C)C)S(=O)(=O)c2ccc(OCC3CCOCC3)c(CO)c2)cc1` [GSK2981278], the Activity in the experiment filed under Mus musculus [3] came to 23%.
Regarding `C[C@]12C=CC(=O)C=C1CC[C@@H]1[C@@H]2C(=O)C[C@@]2(C)[C@H]1CC[C@]2(Cl)S(=O)(=O)Cc1ccccc1`, the “inhibition (INH)” value in experiment [4] turned out to be 70%.
The term IC50 denotes the point on the concentration scale where inhibition reaches its midpoint. The compound `CC1=C2CCc3cc(/C=C/c4ccccc4)ccc3N2CCC1=O` displayed an IC50 in experiment [5] of 14.2 nM.
